One assay deals with Cathepsin S (Homo sapiens, UniProt P25774). The assay is described as follows: Enzyme Assay: The assay uses baculovirus-expressed human cathepsin S and the boc-Val-Leu-Lys-AMC fluorescent substrate available from Bachem in a 384 well plate format, in which 7 test compounds can be tested in parallel with a positive control comprising a known cathepsin S inhibitor comparator. […] 2 μl of each 10 mM test compound is added to a separate well on row A, columns 1-10. Add 90 μl assay buffer containing 1 mM DTT and 2 nM cathepsin S to each well of rows B-H and 180 μl to row A.

The target of another assay is T1, Cathepsin K (Homo sapiens, UniProt P43235).
T1 sequence (P43235 whole entry): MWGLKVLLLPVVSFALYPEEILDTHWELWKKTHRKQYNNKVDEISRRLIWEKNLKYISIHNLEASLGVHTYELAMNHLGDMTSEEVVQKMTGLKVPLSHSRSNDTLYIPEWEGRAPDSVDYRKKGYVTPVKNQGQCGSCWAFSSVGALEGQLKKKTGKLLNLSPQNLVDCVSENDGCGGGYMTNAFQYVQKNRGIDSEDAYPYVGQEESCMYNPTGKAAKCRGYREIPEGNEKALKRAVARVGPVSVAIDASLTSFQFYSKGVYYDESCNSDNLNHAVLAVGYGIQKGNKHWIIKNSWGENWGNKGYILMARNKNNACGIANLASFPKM
The experiment in a line: Enzyme Assay: Standard assay conditions for the determination of kinetic constants used a fluorogenic peptide substrate, typically H-D-Ala-Leu-Lys-AMC, and were determined in either 100 mM Mes/Tris, pH 7.0 containing 1 mM EDTA and 10 mM 2-mercaptoethanol or 100 mM Na phosphate, imM EDTA, 0.1% PEG4000 pH 6.5 or 100 mM Na acetate, pH 5.5 containing 5 mM EDTA and 20 mM cysteine, in each case optionally with […] as stabiliser. The enzyme concentration used was 5 nM. The stock substrate solution was prepared at 10 mM in DMSO. Screens were carried out at a fixed substrate concentration of 60 μM and detailed kinetic studies with doubling dilutions of substrate from 250 μM. The total DMSO concentration in the assay was kept below 3%. All assays were conducted at ambient temperature. Product fluorescence (excitation at 390 nm, emission at 460 nm) was monitored with a Labsystems Fluoroskan Ascent fluorescent plate reader.

Sequence of Cathepsin S (P25774 whole entry): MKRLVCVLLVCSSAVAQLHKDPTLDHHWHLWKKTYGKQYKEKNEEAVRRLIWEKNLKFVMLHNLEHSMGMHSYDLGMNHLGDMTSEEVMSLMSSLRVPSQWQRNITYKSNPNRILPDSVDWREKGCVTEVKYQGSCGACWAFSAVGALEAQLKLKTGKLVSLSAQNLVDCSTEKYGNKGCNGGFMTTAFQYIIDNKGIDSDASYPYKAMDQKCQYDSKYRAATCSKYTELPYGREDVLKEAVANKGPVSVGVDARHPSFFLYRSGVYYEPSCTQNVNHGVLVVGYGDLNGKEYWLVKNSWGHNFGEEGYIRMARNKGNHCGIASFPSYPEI

On to `C#C[C@@H]1CN(C(=O)[C@@H](NC(=O)c2ccc(-c3nc(N4CCN(C)CC4)sc3F)cc2)C2CCCC2)[C@@H]2C(=O)CO[C@H]12`, for which the Ki (in general, the equilibrium dissociation constant of an inhibitor or competing ligand from its target) was 2900 nM at Cathepsin S and 0.6 nM on Cathepsin K.

These data come from ChEMBL document CHEMBL3638596, “Protease inhibitors” (2014).
